Experimental data taken from patent US9572785B2, “DP2 antagonist and uses thereof” (Brickell Biotech, Inc., priority 2009, dated 2017).
Values after ≈ are worked out from the molar mass of the structure shown. Like-named read-outs stand apart in the source and are kept apart here.

Columns and labels:
rat DP2 = biological target: T1, rat DP2 (Rattus norvegicus, UniProt Q6XKD3); test: DP2 radioligand membrane binding assay, rat; details: read-out: average IC50, inhibition of radiolabeled PGD2 binding
T1 sequence (Q6XKD3 1-403): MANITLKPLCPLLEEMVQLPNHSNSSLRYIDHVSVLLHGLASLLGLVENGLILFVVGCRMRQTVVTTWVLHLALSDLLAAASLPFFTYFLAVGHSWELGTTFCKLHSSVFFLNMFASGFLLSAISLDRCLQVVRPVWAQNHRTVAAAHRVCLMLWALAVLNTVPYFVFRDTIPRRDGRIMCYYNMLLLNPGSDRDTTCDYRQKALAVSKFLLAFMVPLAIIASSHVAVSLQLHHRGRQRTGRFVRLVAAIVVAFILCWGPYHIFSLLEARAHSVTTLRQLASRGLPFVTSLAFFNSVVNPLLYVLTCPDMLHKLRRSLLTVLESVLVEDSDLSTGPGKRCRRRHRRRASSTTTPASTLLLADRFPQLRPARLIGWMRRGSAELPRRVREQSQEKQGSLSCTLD
Procedure: (§1) HEK293 cells stably expressing recombinant human DP2 are resuspended in 10 mM Hepes, 7.4 containing 1 mM DTT, lysed and centrifuged at 75,000×g to pellet the membranes. The membranes are resuspended in 10 mM Hepes, 7.4 containing 1 mM DTT and 10% glycerol to approximately 5 mg protein/ml. […] The reactions are terminated by rapid filtration through Whatman GF/C glass fibre filter plates. […] After harvesting, the filter plates are washed 3 times with 1 ml cold Wash Buffer then dried. Scintillant is then added to the plates and the radioactivity retained on the filters is determined on a Packard TopCount (Perkin Elmer). Specific binding is determined as total radioactive binding minus non-specific binding in the presence of 10 μM PGD2. IC50s were determined using GraphPad prism analysis of drug titration curves. Mouse, rat and guinea pig DP2 receptors were also investigated.

in vivo [1] = details: mouse, plasma, po, 10 mg/kg
clinical = details: human
mouse DP2 receptor = biological target: T2, mouse DP2 receptor (Mus musculus, UniProt Q9Z2J6); test: DP2 radioligand membrane binding assay, mouse
T2 construct: expressed in transfected cells
T2 sequence (Q9Z2J6 1-382): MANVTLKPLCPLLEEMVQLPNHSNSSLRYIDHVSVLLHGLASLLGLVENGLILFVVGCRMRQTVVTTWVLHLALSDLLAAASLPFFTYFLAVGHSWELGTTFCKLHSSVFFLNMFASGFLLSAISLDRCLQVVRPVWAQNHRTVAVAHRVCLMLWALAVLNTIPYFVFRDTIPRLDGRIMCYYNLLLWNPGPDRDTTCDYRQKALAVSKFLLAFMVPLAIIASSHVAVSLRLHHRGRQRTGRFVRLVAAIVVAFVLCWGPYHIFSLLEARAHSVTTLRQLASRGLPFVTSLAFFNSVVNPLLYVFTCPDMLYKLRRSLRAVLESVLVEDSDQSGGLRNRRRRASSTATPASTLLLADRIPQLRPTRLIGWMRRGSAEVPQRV
Procedure: as §1

[2] = Solubility profiling at various pHs; type: physicochemical; details: 0.15 M NaCl (aq), pH-adjusted, 25 °C, thermodynamic from solid
Procedure: Aqueous solubility was determined by suspending sufficient compound in water to give a maximum final concentration of ≧10 mg·ml^−1 of the parent free-form of the compound. The suspension was equilibrated at 25° C. for 24 hours then the pH was measured. The suspension was then filtered through a glass fibre C filter into a 96 well plate. The filtrate was then diluted by an appropriate factor. Quantitation was by HPLC with reference to a standard solution of approximately 0.1 mg·ml^−1 in DMSO. Different volumes of the standard, diluted and undiluted sample solutions were injected. The solubility was calculated using the peak areas determined by integration of the peak found at the same retention time as the principal peak in the standard injection.
The aqueous solubility was determined using the method described in Table 1. The pH was varied by the suspensions being made up in 0.15 M NaCl (aq) and the pH adjusted to the appropriate value with either dilute HCl or NaOH. The suspension was then allowed to equilibrate for two hours followed by checking the pH and readjustment if required, using either HCl or NaOH as appropriate. The suspension was then allowed to equilibrate for 24 hrs.

physchem = details: water, 25 °C, pH 6.1, water, thermodynamic from solid
in vivo [3] = details: Hartley, guinea pig, in vivo
guinea pig DP2 receptor = biological target: T3, guinea pig DP2 receptor (Cavia porcellus, UniProt H0W1T0); test: DP2 radioligand membrane binding assay, guinea pig
T3 sequence (H0W1T0 1-391): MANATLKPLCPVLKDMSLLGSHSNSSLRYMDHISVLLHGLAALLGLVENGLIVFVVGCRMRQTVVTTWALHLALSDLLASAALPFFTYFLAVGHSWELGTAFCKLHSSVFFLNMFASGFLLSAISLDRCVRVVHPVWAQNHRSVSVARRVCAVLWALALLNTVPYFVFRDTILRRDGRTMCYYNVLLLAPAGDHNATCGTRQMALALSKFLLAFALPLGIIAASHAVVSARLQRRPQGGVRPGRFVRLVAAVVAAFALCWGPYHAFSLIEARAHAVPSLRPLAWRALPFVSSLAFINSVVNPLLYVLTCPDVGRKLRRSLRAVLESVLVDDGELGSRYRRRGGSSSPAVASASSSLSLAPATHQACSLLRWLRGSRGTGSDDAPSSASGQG
Procedure: as §1

CCN(Cc1cc(C(F)(F)F)ccc1-c1cc(CC(=O)O)ccc1OC)C(=O)NCc1ccccc1 [Compound 1, [2′-(3-benzyl-1-ethyl-ureidomethyl)-6-methoxy-4′-trifluoromethyl-biphenyl-3-yl]-acetic acid]
IC50 (rat DP2): 10.4 nM
AUC0-24 (human, in vivo): 44.5 ng·h/mL
Cmax (human, in vivo): 15.8 ng/mL
t1/2 (multiple dose administration 30 mg, cohort 2, Day 7): 11.0 h
concentration at 1 h (in vivo [1]): 280 nM
concentration at 2 h (in vivo [1]): 150 nM
concentration at 4 h (in vivo [1]): 70 nM
concentration at 8 h (in vivo [1]): 30 nM
concentration at 24 h (in vivo [1]): < 8 nM
half-life (clinical; in vivo): 6.6 to 11 h
AUC(0-t) (clinical; plasma, oral, 30 mg): 32.3 ng·h/mL
Cmax (clinical; plasma, oral, 30 mg): 16 ng/mL
AUC(0-t) (clinical; plasma, po, 30 mg): 24.1 ng·h/mL
Cmax (clinical; plasma, po, 30 mg): 11.2 ng/mL
half-life (clinical; plasma, po, 30 mg): 6.6 h
AUC(0-t) (clinical; plasma, po, 100 mg): 118 ng·h/mL
Cmax (clinical; plasma, po, 100 mg): 81 ng/mL
half-life (clinical; plasma, po, 100 mg): 8.1 h
AUC(0-t) (clinical; plasma, po, 300 mg): 1420 ng·h/mL
Cmax (clinical; plasma, po, 300 mg): 1400 ng/mL
half-life (clinical; plasma, po, 300 mg): 7 h
IC50 (mouse DP2 receptor; mouse DP2, membrane binding, read-out: average IC50, inhibition of radiolabeled PGD2 binding): 7.8 nM
IC50 (mouse DP2 receptor; mouse DP2 receptor, in the presence of 0.2% mouse serum albumin, read-out: IC50, radioligand membrane binding): 20.1 nM
solubility at 24 h ([2]; pH 5.6, saline or isotonic, Media pH 6, original pH 6.02, final pH 5.60): 160 µg/mL (≈ 320 µM)
solubility at 24 h ([2]; saline or isotonic, Media pH 1, original pH 1.15, final pH 1.15): 6.9 µg/mL (≈ 13.8 µM)
solubility at 24 h ([2]; saline or isotonic, Media pH 2, original pH 2.0, final pH 2.0): 1.6 µg/mL (≈ 3.2 µM)
solubility at 24 h ([2]; saline or isotonic, Media pH 3, original pH 3.01, final pH 3.1): 2.2 µg/mL (≈ 4.4 µM)
solubility at 24 h ([2]; saline or isotonic, Media pH 4, original pH 3.97, final pH 4.22): 3.5 µg/mL (≈ 6.99 µM)
solubility at 24 h ([2]; saline or isotonic, Media pH 5, original pH 5.0, final pH 5.07): 53 µg/mL (≈ 106 µM)
solubility at 24 h ([2]; saline or isotonic, Media pH 7, original pH 7.03, final pH 6.47): 590 µg/mL (≈ 1180 µM)
solubility at 24 h ([2]; saline or isotonic, Media pH 8, original pH 8.09, final pH 7.07): 2200 µg/mL (≈ 4400 µM)
solubility at 24 h (physchem): 210 µg/mL (≈ 420 µM)
concentration at 18.5 h (in vivo [3]): < 40 nM
IC50 (guinea pig DP2 receptor; average IC50, inhibition of radiolabeled PGD2 binding, guinea pig DP2, membrane binding): 4.9 nM
IC50 (guinea pig DP2 receptor; guinea pig DP2 receptor, in the presence of 0.2% guinea pig serum albumin, read-out: IC50, radioligand membrane binding): 22.9 nM
increase in 4-hydroxydiclofenac (CYP2C9) production compared to native cells (CYP2C9): 1.1 fold
